Experimental data published in patent publication US8461083B2, “Herbicidal compounds” (Syngenta Limited, priority 2008, dated 2013).

Columns and labels:
Format in all cases: in vivo
[1] = test system: Echinochloa crus-galli (ECHCG); assay: Post-emergence herbicidal glasshouse test; conditions: post-emergence (sprayed after 8 days cultivation), evaluated after 13 days, 100=total damage to plant, 0=no damage to plant; for POST Application ECHCG, damage to plant: 1000 g/ha; for pest or weed control at 1000 g/ha: Echinochloa crus-galli, 312 h, read-out: POST Application ECHCG, damage to plant
Description: (§1) Seeds of a variety of test species were sown in standard soil in pots (Alopecurus myosuroides (ALOMY), Setaria faberi (SETFA), Echinochloa crus-galli (ECHCG), Solanum nigrum (SOLNI) and Amaranthus retoflexus (AMARE)). After cultivation for one day (pre-emergence) or after 8 days cultivation (post-emergence) under controlled conditions in a glasshouse (at 24/16° C., day/night; 14 hours light; 65% humidity), the plants were sprayed with an aqueous spray solution derived from the formulation of the technical active ingredient in acetone/water (50:50) solution containing 0.5% Tween 20 (polyoxyethelyene sorbitan monolaurate, CAS RN 9005-64-5). Compounds were applied at 1000 g/ha. The test plants were then grown in a glasshouse under controlled conditions in a glasshouse (at 24/16° C., day/night; 14 hours light; 65% humidity) and watered twice daily. After 13 days for pre and post-emergence, the test was evaluated (100=total damage to plant; 0=no damage to plant).

Setaria faberi (SETFA) [2] = assay: Post-emergence herbicidal glasshouse test; conditions: post-emergence (sprayed after 8 days cultivation), evaluated after 13 days, 100=total damage to plant, 0=no damage to plant; for POST Application SETFA, damage to plant: 1000 g/ha; for pest or weed control at 1000 g/ha: Setaria faberi, 312 h, read-out: POST Application SETFA, damage to plant
Description: as §1

Solanum nigrum (SOLNI) [3] = assay: Post-emergence herbicidal glasshouse test; conditions: post-emergence (sprayed after 8 days cultivation), evaluated after 13 days, 100=total damage to plant, 0=no damage to plant; for POST Application SOLNI, damage to plant: 1000 g/ha; for pest or weed control at 1000 g/ha: Solanum nigrum, 312 h, read-out: POST Application SOLNI, damage to plant
Description: as §1

[4] = test system: Amaranthus retoflexus (AMARE); assay: Post-emergence herbicidal glasshouse test; conditions: post-emergence (sprayed after 8 days cultivation), evaluated after 13 days, 100=total damage to plant, 0=no damage to plant; for POST Application AMARE, damage to plant: 1000 g/ha; for pest or weed control at 1000 g/ha: Amaranthus retroflexus, 312 h, read-out: POST Application AMARE, damage to plant
Description: as §1

[5] = test system: Alopecurus myosuroides (ALOMY); assay: Post-emergence herbicidal glasshouse test; conditions: post-emergence (sprayed after 8 days cultivation), evaluated after 13 days, 100=total damage to plant, 0=no damage to plant; for POST Application ALOMY, damage to plant: 1000 g/ha; for pest or weed control at 1000 g/ha: Alopecurus myosuroides, 312 h, read-out: POST Application ALOMY, damage to plant
Description: as §1

[6] = test system: Echinochloa crus-galli (ECHCG); assay: Pre-emergence herbicidal glasshouse test; conditions: pre-emergence (sprayed after one day cultivation), evaluated after 13 days, 100=total damage to plant, 0=no damage to plant; for PRE Application ECHCG, damage to plant: 1000 g/ha; for pest or weed control at 1000 g/ha: Echinochloa crus-galli, 312 h, read-out: PRE Application ECHCG, damage to plant
Description: as §1

Setaria faberi (SETFA) [7] = assay: Pre-emergence herbicidal glasshouse test; conditions: pre-emergence (sprayed after one day cultivation), evaluated after 13 days, 100=total damage to plant, 0=no damage to plant; for PRE Application SETFA, damage to plant: 1000 g/ha; for pest or weed control at 1000 g/ha: Setaria faberi, 312 h, read-out: PRE Application SETFA, damage to plant
Description: as §1

Solanum nigrum (SOLNI) [8] = assay: Pre-emergence herbicidal glasshouse test; conditions: pre-emergence (sprayed after one day cultivation), evaluated after 13 days, 100=total damage to plant, 0=no damage to plant; for PRE Application SOLNI, damage to plant: 1000 g/ha; for pest or weed control at 1000 g/ha: Solanum nigrum, 312 h, read-out: PRE Application SOLNI, damage to plant
Description: as §1

[9] = test system: Amaranthus retoflexus (AMARE); assay: Pre-emergence herbicidal glasshouse test; conditions: pre-emergence (sprayed after one day cultivation), evaluated after 13 days, 100=total damage to plant, 0=no damage to plant; for PRE Application AMARE, damage to plant: 1000 g/ha; for pest or weed control at 1000 g/ha: Amaranthus retroflexus, 312 h, read-out: PRE Application AMARE, damage to plant
Description: as §1

[10] = test system: Alopecurus myosuroides (ALOMY); assay: Pre-emergence herbicidal glasshouse test; conditions: pre-emergence (sprayed after one day cultivation), evaluated after 13 days, 100=total damage to plant, 0=no damage to plant; for PRE Application ALOMY, damage to plant: 1000 g/ha; for pest or weed control at 1000 g/ha: Alopecurus myosuroides, 312 h, read-out: PRE Application ALOMY, damage to plant
Description: as §1

Structure (SMILES) | POST Application ECHCG, damage to plant [1] | POST Application SETFA, damage to plant (Setaria faberi (SETFA) [2]) | POST Application SOLNI, damage to plant (Solanum nigrum (SOLNI) [3]) | POST Application AMARE, damage to plant [4] | POST Application ALOMY, damage to plant [5] | PRE Application ECHCG, damage to plant [6] | PRE Application SETFA, damage to plant (Setaria faberi (SETFA) [7]) | PRE Application SOLNI, damage to plant (Solanum nigrum (SOLNI) [8]) | PRE Application AMARE, damage to plant [9] | PRE Application ALOMY, damage to plant [10] | pest or weed control at 1000 g/ha [1] [%] | pest or weed control at 1000 g/ha (Setaria faberi (SETFA) [2]) [%] | pest or weed control at 1000 g/ha (Solanum nigrum (SOLNI) [3]) [%] | pest or weed control at 1000 g/ha [4] [%] | pest or weed control at 1000 g/ha [5] [%] | pest or weed control at 1000 g/ha [6] [%] | pest or weed control at 1000 g/ha (Setaria faberi (SETFA) [7]) [%] | pest or weed control at 1000 g/ha (Solanum nigrum (SOLNI) [8]) [%] | pest or weed control at 1000 g/ha [9] [%] | pest or weed control at 1000 g/ha [10] [%]
O=C1CCCC(=O)C1C(=O)c1cc2ccc(=O)n(Cc3ccccc3)c2nc1C(F)(F)F [Compound 2.20, 2-(8-Benzyl-7-oxo-7,8-dihydro-2-trifluoromethyl-[1,8]-naphthyridine-3-carbony)-cyclohexane-1,3-dione] | 70 | 70 | 80 | 80 | 70 | 100 | 100 | 100 | 100 | 100 | – | – | – | – | – | – | – | – | – | –
Cc1nc2nc(C(F)(F)F)c(C(=O)C3=C(OC(=O)C(C)C)CCCC3=O)cc2cc1F [Compound 4.21, Isobutyric acid 2-(6-fluoro-7-methyl-2-trifluoromethyl-[1,8]-naphthyridine-3-carbonyl)-3-oxo-cyclohex-1-enyl ester] | – | – | – | – | – | – | – | – | – | – | 80 | 80 | 80 | 90 | 80 | 100 | 100 | 100 | 100 | 80
Cc1ccc2cc(C(=O)C3C(=O)CCCC3=O)c(C(F)F)nc2n1 [Compound 1.85, 2-(2-difluoromethyl-7-methyl-[1,8]-naphthyridine-3-carbonyl)-cyclohexane-1,3-dione] | – | – | – | – | – | – | – | – | – | – | 80 | 80 | 80 | 80 | 50 | 100 | 80 | 100 | 90 | 10
Cc1nc2nc(C(F)(F)Cl)c(C(=O)C3C(=O)CCCC3=O)cc2cc1F [Compound 1.87, 2-(2-chlorodifluoromethyl-6-fluoro-7-methyl-[1,8]-naphthyridine-3-carbonyl)-cyclohexane-1,3-dione] | 90 | 80 | 90 | 80 | 70 | 100 | 100 | 100 | 100 | 60 | – | – | – | – | – | – | – | – | – | –
Cc1c(F)cnc2nc(C(F)(F)F)c(C(=O)C3C(=O)CCCC3=O)cc12 [Compound 1.62, 2-[6-Fluoro-5-methyl-2-trifluoromethyl-[1,8]-naphthyridine-3-carbony]-cyclohexane-1,3-dione] | – | – | – | – | – | – | – | – | – | – | 70 | 70 | 80 | 50 | 0 | 50 | 30 | 60 | 20 | 0
Cn1c(=O)ccc2cc(C(=O)C3C(=O)CCCC3=O)c(C(F)(F)F)nc21 [Compound 2.21, 2-(8-methyl-7-oxo-7,8-dihydro-2-trifluoromethyl-[1,8]-naphthyridine-3-carbony)-cyclohexane-1,3-dione] | – | – | – | – | – | – | – | – | – | – | 70 | 80 | 80 | 90 | 80 | 100 | 100 | 100 | 100 | 90
CCOCCn1c(=O)ccc2cc(C(=O)C3C(=O)CCCC3=O)c(C(F)(F)F)nc21 [Compound 2.16, 2-{8-(2-ethoxyethyl)-7-oxo-7,8-dihydro-2-trifluoromethyl-[1,8]-naphthyridine-3-carbony}-cyclohexane-1,3-dione] | 90 | 90 | 90 | 70 | 90 | 90 | 90 | 90 | 90 | 60 | – | – | – | – | – | – | – | – | – | –
CC(C)(C)C(=O)Cn1c(=O)ccc2cc(C(=O)C3C(=O)CCCC3=O)c(C(F)(F)F)nc21 [Compound 2.7, 2-{8-(3,3-dimethyl-2-oxo-butyl)-7-oxo-7,8-dihydro-2-trifluoromethyl-[1,8]-naphthyridine-3-carbony}-cyclohexane-1,3-dione] | 70 | 70 | 100 | 70 | 40 | 80 | 40 | 100 | 60 | 30 | – | – | – | – | – | – | – | – | – | –
CCCn1c(=O)ccc2cc(C(=O)C3C(=O)CCCC3=O)c(C(F)(F)F)nc21 [Compound 2.13, 2-{8-n.-propyl-7-oxo-7,8-dihydro-2-trifluoromethyl-[1,8]-naphthyridine-3-carbony}-cyclohexane-1,3-dione] | 90 | 90 | 90 | 70 | 80 | 90 | 90 | 100 | 90 | 60 | – | – | – | – | – | – | – | – | – | –
Cc1c(F)cnc2nc(C(F)(F)F)c(C(=O)C3C(=O)C4CCC(C4)C3=O)cc12 (centres unmarked) [Compound 3.5, 3-[6-Fluoro-5-methyl-2-trifluoromethyl-[1,8]-naphthyridine-3-carbony]-bicyclo[3.2.1]octane-2,4-dione] | – | – | – | – | – | – | – | – | – | – | 70 | 70 | 80 | 50 | 0 | 50 | 30 | 60 | 20 | 0
CS(=O)(=O)c1ccc2cc(C(=O)C3C(=O)CCCC3=O)c(C(F)(F)F)nc2n1 [Compound 1.20] | – | – | – | – | – | – | – | – | – | – | 90 | 100 | 100 | 80 | 20 | 70 | 80 | 100 | 30 | 20
